Assay results published in PubChem BioAssay AID489023 (Sanford-Burnham Center for Chemical Genomics, 2010).
pIC50: −log10 of the molar value. Active and inactive are the calls of the source. No rule for the calls is given here.

tested on: 697B cells, BCR-induced NF-kB luciferase reporter luminescence; test: inhibitors of BCR-induced NF-kB activation, dose response, 697B cells, luciferase luminescence (AID 489023)

Structure (SMILES)	pIC50	IC50
Cc1[nH]c2ccccc2c1/C=N/Nc1nc(Nc2ccc(F)cc2)nc(N2CCOCC2)n1	5.91	
CC(C)(C)c1ccc(-c2nnc(SCC(=O)NC3CC3)o2)cc1		> 80 µM (inactive)
CC1CCc2c(sc3nc(C(C)(C)C)nc(N4CCN(C(=O)CCl)CC4)c23)C1 (stereo unspecified)	6.17	
CCn1c(=O)cc(SCC(=O)N2CCN(C)CC2)c2ccccc21		> 80 µM (inactive)
CCC(CO)Oc1cc(NCc2ccccc2O)c2ncn(C(C)C)c2c1 (stereo unspecified)		> 80 µM (inactive)
Cc1ccc(S(=O)(=O)CC2CSc3nc4ccccc4n32)cc1 (stereo unspecified)		> 80 µM (inactive)
Cc1nc2ccccn2c1C(=O)/C=C/c1cccc([N+](=O)[O-])c1		22.8 µM (inactive)
C[C@H]1CCC/C=C/[C@@H]2C[C@H](O)C[C@H]2[C@H](O)/C=C/C(=O)O1		> 80 µM (inactive)
CCc1ccc(/C=C2/SC(=S)N(CCC(=O)Nc3cccc(C(=O)O)c3)C2=O)cc1		> 80 µM (inactive)
CC(=O)Nc1ccc(Nc2nc(-c3sc(NC(C)=O)nc3C)cs2)cc1	5.67	
CCn1c(=O)cc(OCC(=O)NCc2ccc(C)o2)c2ccccc21		> 80 µM (inactive)
Cc1cc(C)c(CN2CCN(C(=O)Cn3cnc4c(NCc5ccccc5)ncnc43)CC2)c(C)c1		52.7 µM (inactive)
COc1ccc(-c2ccc(C)cc2)cc1[C@H]1[C@H]2C=CC[C@@H](C)[C@@H]2C(=O)N1Cc1ccccc1		> 80 µM (inactive)
CCN1C(=O)c2cccc3c(S(=O)(=O)NCC4CCCO4)ccc1c23 (stereo unspecified)		69.7 µM (inactive)
COc1cc(OC)c(/C=N/NC(N)=S)cc1Br		34.2 µM (inactive)
Cc1ccc(C(=O)CSc2nnc(COc3cccc(C)c3)o2)cc1		> 80 µM (inactive)
COc1ccc(-c2noc(CCCC(=O)Nc3ccc(C(N)=O)cc3)n2)cc1	5.06	
COc1cc(Br)c(C(=O)c2nccc3cc(OC)c(OC)cc23)cc1OC		> 80 µM (inactive)
CC1(C)CC2CC(C)(CN2S(=O)(=O)c2ccc(C(=O)Nc3ccc(S(=O)(=O)N4CCOCC4)cc3)cc2)C1 (stereo unspecified)		> 80 µM (inactive)
COc1cc(-c2cc(=O)c3c(O)c(OC)c(OC)c(OC)c3o2)cc(OC)c1OC		> 80 µM (inactive)
CCOC(=O)C(=CNc1cc(C)ccc1C)C(=O)OCC		49.2 µM (inactive)
COc1cccc(N2CCN(c3ncnc4c3[nH]c3ccc(F)cc34)CC2C)c1 (stereo unspecified)	6.10	
CC1=CC(C)(C)Nc2ccc(OC(=O)C(C)N3C(=O)c4ccccc4C3=O)cc21 (stereo unspecified)	5.16	
Cn1c(=O)cc(OCCCC(=O)N2CCCCC2)c2ccccc21		> 80 µM (inactive)

Structure (SMILES)	pIC50	IC50
O=C(Nc1nc(-c2ccccc2)cs1)c1ccccc1NS(=O)(=O)c1ccc(F)cc1		21.7 µM (inactive)
CC1CC(C)(C)Nc2ccc(OC(=O)c3ccco3)cc21 (stereo unspecified)	5.04	
Cc1cccc(C(=O)Nc2ccc(CC(=O)O)cc2)c1		24.1 µM (inactive)
Cc1ccc(Nc2nc(N3CCOCC3)nc(N3CCOCC3)n2)cc1C	5.88	
Cc1nc([N+](=O)[O-])c(Sc2nc3ccc([N+](=O)[O-])cc3[nH]2)n1Cc1ccccc1	5.06	
N=c1c2c(n(Cc3cccc(Cl)c3)c3c1CCC3)CCCC2		59.9 µM (inactive)
CCc1ccc2nc(Nc3nc(COC)cc(=O)[nH]3)nc(C)c2c1		> 80 µM (inactive)
Cc1nnc2c3ccccc3c(-c3ccccc3)nn12		> 80 µM (inactive)
COc1ccc(OCc2cccc(C(=O)NN)c2)cc1	5.61	
Cc1[nH]c2ccccc2c1C(=O)CN1C(=O)NC2(CC(C)CC(C)(C)C2)C1=O (stereo unspecified)	5.16	
CC(=C\c1ccccc1)/C=C1/SC(=O)N(CCCC(=O)Nc2ccc(C(=O)O)cc2)C1=O	6.19	
Cc1cc(OCC(=O)Nc2ccc(CCO)cc2)c2c(C)c(C)c(=O)oc2c1		> 80 µM (inactive)
COc1ccc(/C=N/OCC(=O)NC(c2ccccc2)c2ccccc2)cc1OC		> 80 µM (inactive)
CCCc1nc2c(C)cc(-c3nc4ccccc4n3C)cc2n1Cc1ccc(-c2ccccc2C(=O)O)cc1		72.5 µM (inactive)
Cc1[nH]c2ccccc2c1/C=N/Nc1nc(Nc2ccccc2)nc(N2CCOCC2)n1	5.47	
CC1CN(S(=O)(=O)c2ccc(C(=O)Nc3nc(-c4cc5ccccc5o4)cs3)cc2)CC(C)O1 (stereo unspecified)		> 80 µM (inactive)
CSc1ccc(-c2nc(CSCC(=O)NC3CC3)c(C)o2)cc1	5.61	
CCc1ccc(/C=C2\SC(=S)N(CCC(=O)NC3=NCCS3)C2=O)cc1	4.91	
CC(C)[C@H](N)c1nnc(SCC(=O)c2ccc(Cl)cc2)o1		> 80 µM (inactive)
COc1ccc(C(=O)Nc2nnc(SCC(=O)Nc3ccc(NC(C)=O)cc3)s2)c(OC)c1		> 80 µM (inactive)
COc1cc(NC(=O)c2cc3c(C)nc4ccccc4c3o2)cc(OC)c1OC	4.85	
COc1cc(C2C(C#N)=C(N)Oc3cc(N)ccc32)cc(OC)c1OC (stereo unspecified)		> 80 µM (inactive)
CC1CCN(CCCNC(=O)COc2cc(=O)n(C)c3ccccc23)CC1		> 80 µM (inactive)
Cc1ccc(-c2nsc3c(N4CCC(C(N)=O)CC4)ncnc23)cc1	5.20	

Structure (SMILES)	pIC50	IC50
O=C(c1cc2nc(-c3ccccc3)cc(-c3ccccc3)n2n1)N1CCN(C(=O)c2ccco2)CC1	5.06	
O=C(O)COc1ccc(-c2nccc(-c3ccccn3)n2)cc1		21.7 µM (inactive)
Cc1c(CCC(=O)N2CCC(C(=O)O)CC2)c(=O)oc2cc3oc4c(c3cc12)CCCC4	4.85	
Cc1cc(C)c2nc(NC(=O)C3CSC4(C)CCC(=O)N34)sc2c1 (stereo unspecified)		32.2 µM (inactive)
N=c1c2c(n(Cc3ccc(Cl)cc3Cl)c3c1CCC3)CCCC2		40.3 µM (inactive)
CC(C)(C)C(=O)/C(=C/c1ccncc1)n1cncn1	5.50	
CC1Cc2ccccc2N1S(=O)(=O)c1cnc(Cl)c(Br)c1 (stereo unspecified)		72.9 µM (inactive)
Cc1ccc(-c2nn3c(C)nnc3c3ccccc23)cc1S(=O)(=O)NCCN1CCOCC1		31.5 µM (inactive)
Cc1ccccc1Nc1nc(Cl)c(C=O)s1		> 80 µM (inactive)
Cc1ccc(-c2nc(C(=O)NCC3CCCO3)cc3c2[nH]c2ccccc23)cc1 (stereo unspecified)	4.89	
COc1ccc(-c2ccc(OC)c([C@H]3[C@H]4C=CC[C@@H](C)[C@@H]4C(=O)N3Cc3ccccc3)c2)cc1C		> 80 µM (inactive)
Cc1ccc(/C=C2\SC(=S)N(CCCC(=O)Nc3ccc(O)cc3)C2=O)cc1	6.57	
CCC(C)NC(=O)c1c(N)n(/N=C/c2ccccn2)c2nc3ccccc3nc12 (stereo unspecified)		23.2 µM (inactive)
CN(C)C(=O)CCc1nc(-c2ccc(C(C)(C)C)cc2)no1	4.73	
Cc1cc(C)cc(NC(=O)c2nnn(Cc3cc(C)ccc3C)c2N)c1		> 80 µM (inactive)
COc1cc(NC(=O)c2ccco2)c(OC)cc1NC(=O)c1cc(OC)c(OC)c(OC)c1		24.9 µM (inactive)
CC(C)(C)c1ccc(-c2noc(CCC(=O)NCC3CCCO3)n2)cc1 (stereo unspecified)	6.68	
COc1cc(C(=O)Nc2cc(C)c(OCC(=O)N3CCOCC3)c(C)c2)cc(OC)c1OC		> 80 µM (inactive)
COc1ccc(-n2ncc3c(N4CCC(C(N)=O)CC4)ncnc32)cc1		> 80 µM (inactive)
Nc1ccccc1SCC(=O)Nc1nc(-c2ccccc2)cs1		> 80 µM (inactive)
COc1ccc(NC(=O)CN(C)C(=O)C2(c3ccccc3)CCCC2)cc1	5.45	
O=C(NNC(=O)C12CC3CC(CC(Br)(C3)C1)C2)c1ccccc1F	4.92	
CCN(CC)c1ccc(/C=C2/C(=O)ON=C2C)cc1		21.2 µM (inactive)
